Columns and labels:
[1] = molecular target: CDK2 (UniProt P24941); test: Enzyme Assay
[2] = molecular target: MAPK14 (UniProt Q16539); test: Inhibition of MAPK14 Kinase Activity
Chain of MAPK14 (Q16539 whole entry, looked up): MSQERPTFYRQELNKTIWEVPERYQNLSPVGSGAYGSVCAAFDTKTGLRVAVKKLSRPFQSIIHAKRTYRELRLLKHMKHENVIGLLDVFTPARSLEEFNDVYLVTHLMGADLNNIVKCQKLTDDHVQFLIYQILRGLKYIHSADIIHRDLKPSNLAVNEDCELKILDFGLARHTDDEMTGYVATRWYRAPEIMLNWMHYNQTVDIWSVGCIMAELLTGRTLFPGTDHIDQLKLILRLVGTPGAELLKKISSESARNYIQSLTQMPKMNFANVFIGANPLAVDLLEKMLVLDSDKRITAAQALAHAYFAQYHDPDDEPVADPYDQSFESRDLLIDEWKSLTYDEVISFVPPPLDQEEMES

Compound	IC50 [1]	IC50 [2]
C=Cc1cnc2c(c1)C(=Cc1cc(Br)c(O)c(Br)c1)C(=O)N2	< 1 µM	
NC(=O)c1cncc(-c2cnc3c(c2)C(=Cc2cc(Br)c(O)c(Br)c2)C(=O)N3)c1		1 to 10 µM
COc1ccccc1-c1cc(C=C2C(=O)Nc3ncc(Br)cc32)cc(Br)c1O		< 1 µM
O=C1Nc2ncc(Br)cc2C1=Cc1cc(Br)c(O)c(Br)c1	< 1 µM	< 1 µM
NS(=O)(=O)c1ccc(-c2ccc(C=C3C(=O)Nc4ncc(-c5ccsc5)cc43)o2)cc1	< 1 µM	
CCc1cnc2c(c1)C(=Cc1cc(Br)c(O)c(Br)c1)C(=O)N2	< 1 µM	< 1 µM
O=C1Nc2nc(Cl)ccc2C1=Cc1cc(Br)c(O)c(Br)c1		< 1 µM
O=C1Nc2ncc(Br)cc2C1=Cc1cc([N+](=O)[O-])c(O)c([N+](=O)[O-])c1	< 1 µM	

Source: the Kinase Knowledgebase extract (Sharma et al. 2016)
